In one test the target is T1, Coagulation factor VII (Homo sapiens, UniProt P08709).
T1 sequence (P08709 whole entry): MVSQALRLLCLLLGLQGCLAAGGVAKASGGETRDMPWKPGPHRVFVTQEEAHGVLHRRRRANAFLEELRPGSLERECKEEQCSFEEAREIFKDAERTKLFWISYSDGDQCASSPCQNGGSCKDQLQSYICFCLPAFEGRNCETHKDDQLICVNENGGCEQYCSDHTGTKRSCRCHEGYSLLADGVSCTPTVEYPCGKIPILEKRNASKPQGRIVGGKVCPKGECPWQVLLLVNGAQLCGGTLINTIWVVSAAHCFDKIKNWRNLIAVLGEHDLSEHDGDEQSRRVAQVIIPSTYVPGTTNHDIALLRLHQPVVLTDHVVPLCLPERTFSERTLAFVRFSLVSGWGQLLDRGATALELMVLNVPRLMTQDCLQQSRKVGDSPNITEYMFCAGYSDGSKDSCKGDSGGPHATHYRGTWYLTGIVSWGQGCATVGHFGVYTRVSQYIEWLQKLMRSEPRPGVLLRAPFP
The experiment in a line: In vitro inhibitory activity against coagulation factor VII (fVIIa).

For the next test, the target named is Coagulation factor X (Homo sapiens, UniProt P00742). The experiment in a line: In vitro inhibitory activity against […] coagulation factor (fXa).
The target in another test is Prothrombin (Homo sapiens, UniProt P00734). The experiment in a line: In vitro inhibitory activity against thrombin.

pKi: −log10 of the molar value.

Chain of Coagulation factor X (P00742 41-179 limits assumed): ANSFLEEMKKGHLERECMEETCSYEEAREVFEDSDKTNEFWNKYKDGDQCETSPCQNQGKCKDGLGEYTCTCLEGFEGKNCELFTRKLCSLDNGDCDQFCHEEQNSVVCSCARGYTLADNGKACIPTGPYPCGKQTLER
Chain of Coagulation factor X (P00742 235-488 limits assumed): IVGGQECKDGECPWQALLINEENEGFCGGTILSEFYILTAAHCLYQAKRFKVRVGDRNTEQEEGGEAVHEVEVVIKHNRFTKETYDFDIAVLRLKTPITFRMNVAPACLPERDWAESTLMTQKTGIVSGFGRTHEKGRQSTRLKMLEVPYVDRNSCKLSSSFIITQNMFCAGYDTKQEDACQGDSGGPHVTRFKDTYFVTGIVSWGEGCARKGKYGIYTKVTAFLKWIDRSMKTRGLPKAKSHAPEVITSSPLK

For `CC(NC(=O)CNC(=O)Nc1ccc(C(=N)N)c(F)c1)c1ccc2c(c1)NC(=O)CO2` (stereo not given), the pKi (usually the Ki on a negative log10 scale, so that one unit is a factor of ten) at Coagulation factor VII is 6.33.

As to `C[C@H](NC(=O)CNC(=O)Nc1ccc(C(=N)N)c(Cl)c1)c1cccc(Br)c1`, the pKi on Coagulation factor VII was 5.42.

In the case of `N=C(N)c1ccc(NC(=O)NCC(=O)NCc2cccc(Br)c2)cc1`, the negative-log Ki (pKi) on Coagulation factor X is 5.11; at Coagulation factor VII, 5.82; on Prothrombin, below 4.30.

Turning to `CC(NC(=O)CNC(=O)Nc1ccc(C(=N)N)cc1)c1ccc2c(c1)NC(=O)CO2` (stereo not given), the pKi was below 5.00 at Coagulation factor X and 4.79 at Prothrombin.

On to `C[C@H](NC(=O)Nc1ccc(C(=N)N)cc1)C(=O)NCc1ccc(Cl)c(Cl)c1`, for which the pKi on Coagulation factor VII was 4.34.

For `C[C@H](NC(=O)C(NC(=O)Nc1ccc(C(=N)N)cc1)c1ccccc1)c1cccc(Br)c1` (stereo not given in full), the pKi on Coagulation factor VII is 5.49.

For the compound `C[C@H](NC(=O)CNC(=O)Nc1ccc(C(=N)N)cc1)c1ccc2c(c1)OCCO2`, the results for the pKi at Coagulation factor X, on Coagulation factor VII and on Prothrombin were below 5.00, 7.17 and 4.95, respectively.

Regarding `N=C(N)c1ccc(NC(=O)NCC(=O)NCc2ccc(Cl)c(Cl)c2)cc1`, the pKi at Coagulation factor X is 4.84; on Prothrombin, 5.00.

As to `COc1cccc([C@H](C)NC(=O)CNC(=O)Nc2ccc(C(=N)N)cc2)c1`, the figures for the pKi at Coagulation factor X, at Coagulation factor VII and at Prothrombin were below 5.00, 7.46 and 4.74, respectively.

For the compound `C[C@H](NC(=O)CNC(=O)Nc1ccc(C(=N)N)cc1)c1cccc(Br)c1`, the results for the pKi at Coagulation factor X, at Coagulation factor VII and on Prothrombin were below 5.00, 7.57 and 4.80, respectively.

In the case of `CC(NC(=O)CNC(=O)Nc1ccc(C(=N)N)cc1)c1ccc(C(F)(F)F)cc1C(F)(F)F` (stereo not given), the pKi at Coagulation factor X is below 5.00; at Prothrombin, below 4.00.

`C[C@H](NC(=O)CNC(=O)Nc1ccc(C(=N)N)c(F)c1)c1cccc(Br)c1` had a negative logarithm of the Ki (pKi) on Coagulation factor VII of 6.92.

Consider `C[C@@H](NC(=O)CNC(=O)Nc1ccc(C(=N)N)cc1)c1cccc(Br)c1`, for which the pKi on Coagulation factor VII was 4.51.

In the case of `CC(C)(NC(=O)CNC(=O)Nc1ccc(C(=N)N)cc1)c1ccccc1`, the pKi is below 5.00 on Coagulation factor X and below 4.30 at Prothrombin.

For `C[C@H](NC(=O)CNC(=O)Nc1ccc(C(=N)N)cc1)c1ccccc1`, the pKi at Coagulation factor X is below 5.00; on Prothrombin, 4.29.

Regarding `C[C@@H](NC(=O)CNC(=O)Nc1ccc(C(=N)N)cc1)c1ccccc1`, the pKi at Coagulation factor X was below 5.00; at Prothrombin, below 4.30.

The values are drawn from ChEMBL document CHEMBL1144973, “Design, synthesis, and structure-activity relationship of a new class of amidinophenylurea-based factor VIIa inhibitors” (Bioorg Med Chem Lett, 2003).
